Earlier results as cited in patent publication US20070135454A1, “Bicyclic pyrimidin-4(3h)-ones and analogues and derivatives thereof which modulate the function of the vanilloid-1-receptor(vr1)” (priority 2003, published 2007).

Target: VR1 (Rattus norvegicus, UniProt O35433)
Conditions: Wahl et al., Mol. Pharmacol, 59:9, 2001

Chain of VR1 (O35433 whole entry): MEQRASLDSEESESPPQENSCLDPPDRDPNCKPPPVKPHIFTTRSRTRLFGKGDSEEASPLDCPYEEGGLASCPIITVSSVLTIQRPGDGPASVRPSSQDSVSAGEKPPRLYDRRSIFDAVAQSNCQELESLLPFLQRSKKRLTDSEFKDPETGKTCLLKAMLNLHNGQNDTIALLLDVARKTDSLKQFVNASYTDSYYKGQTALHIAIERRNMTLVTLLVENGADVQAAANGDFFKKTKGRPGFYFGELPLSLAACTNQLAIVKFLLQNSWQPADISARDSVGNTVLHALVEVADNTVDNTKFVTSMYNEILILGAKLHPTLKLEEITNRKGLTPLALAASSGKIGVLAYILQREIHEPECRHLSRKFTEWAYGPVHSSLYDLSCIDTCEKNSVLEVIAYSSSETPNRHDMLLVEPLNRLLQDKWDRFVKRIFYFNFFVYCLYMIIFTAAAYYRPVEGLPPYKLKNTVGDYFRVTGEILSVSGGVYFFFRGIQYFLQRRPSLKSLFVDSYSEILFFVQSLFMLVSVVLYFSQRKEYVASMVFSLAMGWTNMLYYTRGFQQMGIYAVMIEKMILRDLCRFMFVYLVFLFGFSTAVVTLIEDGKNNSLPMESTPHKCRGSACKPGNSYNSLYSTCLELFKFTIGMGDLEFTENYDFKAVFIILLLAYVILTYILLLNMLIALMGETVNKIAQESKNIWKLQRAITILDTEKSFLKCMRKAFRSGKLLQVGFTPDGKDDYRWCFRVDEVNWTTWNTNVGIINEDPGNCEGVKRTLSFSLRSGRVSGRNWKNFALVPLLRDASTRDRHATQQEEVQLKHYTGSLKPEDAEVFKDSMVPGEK

Compound: C=C(C)[C@]12C[C@@H](C)[C@@]34O[C@](Cc5ccccc5)(O[C@@H]1[C@@H]3C=C(COC(=O)Cc1cc(I)c(O)c(OC)c1)C[C@]1(O)C(=O)C(C)=C[C@@H]41)O2 [Iodo-resiniferatoxin]
- antagonist of VR1 (potency in words): nanomolar antagonist of VR1
